Where “and” joins values, the source holds several entries; their conditions need not be identical. Equal values may be shown once.
Test system: CAIX-expressing SK-RC-52 tumors
Assay: Biodistribution in mice bearing SK-RC-52 xenografts
Assay type: in vivo
Details: for Biodistribution Kidney / Biodistribution Muscle / Biodistribution Small intestine / Tumor/Kidney ratio / Tumor/Muscle ratio / Biodistribution Bladder / Biodistribution Blood / Biodistribution Brain / Biodistribution Fat / Biodistribution Heart / Biodistribution Liver / Biodistribution Lung / Biodistribution Pancreas / Biodistribution Spleen / Biodistribution Stomach / Biodistribution Tumor / Tumor/Blood ratio: 740 kBq i.v.
Protocol: Animal experiments were performed in accordance with protocols approved by the Johns Hopkins Animal Care and Use Committee (ACUC). Six-week-old female NOD/SCID mice were purchased from the Animal Resource Core of the Sidney Kimmel Comprehensive Cancer Center of Johns Hopkins and were subcutaneously injected in the lower left flank or upper right flank with 1×10^6 SK-RC-52 cells in RPMI 1640 GlutaMAX™ media (Life Technologies, Frederick, Md.) supplemented with 1% fetal bovine serum (FBS). Mice were monitored for tumor size and used for SPECT/CT imaging when the size of the tumor reached 100 mm^3.
Mice bearing SK-RC-52 xenografts at lower left flank were injected intravenously with 740 kBq (20 μCi) of [^111In]XYIMSR-01, or [^177Lu]XYIMSR-01 in 200 μL of PBS. For competitive blocking, same tumor bearing mice were injected with 740 kBq (20 μCi) of [^111In]XYIMSR-01 and 200 nmole of 8 in 200 μL of PBS. At 1 h, 4 h, 8 h, 24 h and 48 h post-injection, mice were sacrificed by cervical dislocation and the blood was immediately collected by cardiac puncture. Heart, lungs, pancreas, spleen, fat, brain, muscle, small intestines, liver, stomach, kidney, urinary bladder, and tumor were collected. Each organ was weighed and the tissue radioactivity was measured with an automated gamma counter (1282 Compugamma CS, Pharmacia/LKBNuclear, Inc., Mt. Waverly, Vic. Australia). The percentage of injected dose per gram of tissue (% ID/g) was calculated by comparison with samples of a standard dilution of the initial dose. All measurements were corrected for radioactive decay.
Data were expressed as mean±standard deviation (SD). Prism software (GraphPAD, San Diego, Calif.) was used to determine statistical significance. Statistical significance was calculated using a paired t test. P-values <0.0001 were considered significant.
Mice bearing SK-RC-52 xenografts within the lower left flank were injected intravenously with 740 kBq (20 μCi) of [Al^18F]XYIMSR-04 in 200 μL of PBS. At specific 1 hour time point mentioned in the paper, mice (n=5) were sacrificed by cervical dislocation and the blood was immediately collected by cardiac puncture. Heart, lungs, pancreas, spleen, fat, brain, muscle, small intestines, liver, bone, stomach, kidney, urinary bladder, and tumor were collected. Each organ was weighed and the tissue radioactivity was measured with an automated gamma counter (1282 Compugamma CS, Pharmacia/LKBNuclear, Inc., Mt. Waverly, Vic. Australia). The percentage of injected dose per gram of tissue (% ID/g) was calculated by comparison with samples of a standard dilution of the initial dose. All measurements were corrected for radioactive decay. Data were expressed as mean±standard deviation (SD). Prism software (GraphPAD, San Diego, Calif.) was used to determine statistical significance. Statistical significance was calculated using a paired t test. P-values <0.0001 were considered significant.
Mice bearing SK-RC-52 xenografts within the upper right flank were injected intravenously with 740 kBq (20 μCi) of [^64Cu]XYIMSR-06 in 200 μL of PBS. For in vivo competition (binding specificity) studies, tumor-bearing mice were injected with 740 kBq (20 μCi) of [^64Cu]XYIMSR-06 and 200 nmole of 8 in 200 μL of PBS concurrently. At specific times after injection (1 h, 4 h, 8 h and 24 h), mice (n=5) were sacrificed by cervical dislocation with blood immediately collected by cardiac puncture. Heart, lungs, pancreas, spleen, fat, brain, muscle, small intestines, liver, stomach, kidney, urinary bladder, and tumor were also collected. Each organ was weighed and the tissue radioactivity was measured with an automated gamma counter (1282 Compugamma CS, Pharmacia/LKBNuclear, Inc., Mt. Waverly, Vic. Australia). The percentage of injected dose per gram of tissue (% ID/g) was calculated by comparison with samples of a standard dilution of the initial dose. All measurements were corrected for radioactive decay. Data were expressed as mean±standard deviation (SD). […]

## CC(CCC(=O)N[C@@H](CC(=O)N[C@@H](CC(=O)N[C@@H](CCCCn1cc(CCCC(=O)Nc2nnc(S(N)(=O)=O)s2)nn1)C(=O)NCCOCCOCCNC(=O)CN1CCN2CCN(CC1)CC(=O)[O][Al]([18F])[O]C(=O)C2)C(=O)O)C(=O)O)(c1ccc(O)cc1)c1ccc(O)cc1 [[Al^18F]XYIMSR-04]
1 h post-injection
  Biodistribution Kidney: 50.84 ± 2.65 % ID/g
  Biodistribution Muscle: 1.74 ± 0.58 % ID/g
  Biodistribution Small intestine: 9.59 ± 1.04 % ID/g
  Tumor/Kidney ratio: 0.28 and 0.28 ± 0.03
  Tumor/Muscle ratio: 9.74 and 9.74 ± 2.9

## CC(CCC(=O)N[C@@H](CC(=O)N[C@@H](CC(=O)N[C@@H](CCCCn1cc(CCCC(=O)Nc2nnc(S(N)(=O)=O)s2)nn1)C(=O)NCCOCCOCCNC(=S)Nc1ccc(CC2CN(CC(=O)[O-])CCN(CC(=O)[O-])CCN2CC(=O)O)cc1)C(=O)O)C(=O)O)(c1ccc(O)cc1)c1ccc(O)cc1.[64Cu+2] (some centres unmarked) [[^64Cu]XYIMSR-06]
1 h post-injection
  Biodistribution Bladder: 11.12 % ID/g
  Biodistribution Blood: 0.66 % ID/g
  Biodistribution Brain: 1.46 % ID/g
  Biodistribution Fat: 0.80 % ID/g
  Biodistribution Heart: 3.41 % ID/g
  Biodistribution Kidney: 33.65 % ID/g
  Biodistribution Liver: 3.25 % ID/g
  Biodistribution Lung: 25.52 % ID/g
  Biodistribution Muscle: 1.28 % ID/g
  Biodistribution Pancreas: 2.94 % ID/g
  Biodistribution Small intestine: 7.35 % ID/g
  Biodistribution Spleen: 0.36 % ID/g
  Biodistribution Stomach: 14.80 % ID/g
  Biodistribution Tumor: 14.47 % ID/g
  Tumor/Kidney ratio: 0.4
4 h post-injection
  Biodistribution Bladder: 17.05 % ID/g
  Biodistribution Blood: 0.33 % ID/g
  Biodistribution Brain: 0.29 % ID/g
  Biodistribution Fat: 0.52 % ID/g
  Biodistribution Heart: 1.78 % ID/g
  Biodistribution Kidney: 19.99 % ID/g
  Biodistribution Liver: 2.18 % ID/g
  Biodistribution Lung: 12.03 % ID/g
  Biodistribution Muscle: 0.70 % ID/g
  Biodistribution Pancreas: 1.36 % ID/g
  Biodistribution Small intestine: 4.15 % ID/g
  Biodistribution Spleen: 0.24 % ID/g
  Biodistribution Stomach: 8.19 % ID/g
  Biodistribution Tumor: 19.31 % ID/g
  Tumor/Blood ratio: 57.7
  Tumor/Kidney ratio: 1.0
  Tumor/Muscle ratio: 29.4
8 h + block (200 nmole of 8)
  Biodistribution Bladder: 1.45 % ID/g
  Biodistribution Blood: 0.08 % ID/g
  Biodistribution Brain: 0.04 % ID/g
  Biodistribution Fat: 0.05 % ID/g
  Biodistribution Heart: 0.16 % ID/g
  Biodistribution Kidney: 1.82 % ID/g
  Biodistribution Liver: 0.55 % ID/g
  Biodistribution Lung: 0.77 % ID/g
  Biodistribution Muscle: 0.05 % ID/g
  Biodistribution Pancreas: 0.14 % ID/g
  Biodistribution Small intestine: 0.38 % ID/g
  Biodistribution Spleen: 0.14 % ID/g
  Biodistribution Stomach: 0.69 % ID/g
  Biodistribution Tumor: 2.39 % ID/g
  Tumor/Blood ratio: 32.0
  Tumor/Kidney ratio: 1.3
  Tumor/Muscle ratio: 53.0
8 h post-injection
  Biodistribution Bladder: 7.43 % ID/g
  Biodistribution Blood: 0.13 % ID/g
  Biodistribution Brain: 0.24 % ID/g
  Biodistribution Fat: 0.28 % ID/g
  Biodistribution Heart: 0.65 % ID/g
  Biodistribution Kidney: 8.14 % ID/g
  Biodistribution Liver: 0.99 % ID/g
  Biodistribution Lung: 4.64 % ID/g
  Biodistribution Muscle: 0.21 % ID/g
  Biodistribution Pancreas: 0.47 % ID/g
  Biodistribution Small intestine: 1.98 % ID/g
  Biodistribution Spleen: 0.18 % ID/g
  Biodistribution Stomach: 4.02 % ID/g
  Biodistribution Tumor: 16.74 % ID/g
24 h
  All other tumor/organ ratios: > 10.0
24 h + block (200 nmole of 8)
  Biodistribution Bladder: 0.45 % ID/g
  Biodistribution Blood: 0.01 % ID/g
  Biodistribution Brain: 0.02 % ID/g
  Biodistribution Fat: 0.01 % ID/g
  Biodistribution Heart: 0.08 % ID/g
  Biodistribution Kidney: 0.48 % ID/g
  Biodistribution Liver: 0.42 % ID/g
  Biodistribution Lung: 0.29 % ID/g
  Biodistribution Muscle: 0.04 % ID/g
  Biodistribution Pancreas: 0.07 % ID/g
  Biodistribution Small intestine: 0.19 % ID/g
  Biodistribution Spleen: 0.11 % ID/g
  Biodistribution Stomach: 0.29 % ID/g
  Biodistribution Tumor: 1.20 % ID/g
  Tumor/Blood ratio: 27.1
  Tumor/Kidney ratio: 2.4
  Tumor/Muscle ratio: 49.0
24 h post-injection
  Biodistribution Bladder: 0.34 % ID/g
  Biodistribution Blood: 0.00 % ID/g
  Biodistribution Brain: 0.13 % ID/g
  Biodistribution Fat: 0.03 % ID/g
  Biodistribution Heart: 0.12 % ID/g
  Biodistribution Kidney: 0.90 % ID/g
  Biodistribution Liver: 0.38 % ID/g
  Biodistribution Lung: 1.27 % ID/g
  Biodistribution Muscle: 0.02 % ID/g
  Biodistribution Pancreas: 0.21 % ID/g
  Biodistribution Small intestine: 0.47 % ID/g
  Biodistribution Spleen: 0.09 % ID/g
  Biodistribution Stomach: 0.65 % ID/g
  Biodistribution Tumor: 6.2 % ID/g and 6.23 % ID/g
  Tumor/Blood ratio: 142.6
  Tumor/Muscle ratio: 261.3
mouse, in vivo
  Tumor uptake on co-injection of 200 nmole of 8: blocked tumor uptake
Within 24 h
  Radiotracer uptake within liver: no significant radiotracer uptake within liver
